According to patent US8067445B2, “N,N-disubstituted aminoalkylbiphenyl antagonists of prostaglandin D2 receptors” (Panmira Pharmaceuticals, LLC, priority 2008, dated 2011):

Assays:
human DP2 receptor = molecular target: T1, human DP2 receptor (Homo sapiens, UniProt Q9Y5Y4); test: DP2/CRTH2 radioligand binding assay ([3H]PGD2); conditions: [3H]PGD2 binding, membranes of HEK293 cells expressing human DP2; read-out: hDP2
T1 construct: expressed in transfected cells
T1 sequence (Q9Y5Y4 1-395): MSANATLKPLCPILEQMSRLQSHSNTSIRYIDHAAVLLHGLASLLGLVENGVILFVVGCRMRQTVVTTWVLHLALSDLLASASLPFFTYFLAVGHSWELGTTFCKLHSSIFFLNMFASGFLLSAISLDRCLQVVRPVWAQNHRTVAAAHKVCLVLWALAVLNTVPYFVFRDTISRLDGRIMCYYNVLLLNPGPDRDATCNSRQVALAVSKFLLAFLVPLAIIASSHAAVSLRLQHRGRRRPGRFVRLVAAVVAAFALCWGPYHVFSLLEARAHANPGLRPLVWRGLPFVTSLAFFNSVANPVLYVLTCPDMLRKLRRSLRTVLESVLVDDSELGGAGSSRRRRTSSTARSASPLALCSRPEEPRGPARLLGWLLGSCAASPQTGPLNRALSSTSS
Procedure, shortened: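 Membranes from HEK293 cells stably expressing recombinant human DP2 incubated 60 min at room temperature with 1 nM [3H]PGD2 and compound in pH 7.4 Hepes/MnCl2/EDTA buffer, ± 0.2% human serum albumin. Bound radioactivity measured after filtration; non-specific binding defined with 10 μM PGD2. IC50 from titration curves.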

[1] = molecular target: T2, recombinant human CRTH2 receptor (Homo sapiens, UniProt Q9Y5Y4); test: GTPγS binding assay; format: biochemical; conditions: +HSA (0.2% human serum albumin), 80 nM PGD2, CHO cell membranes; read-out: hDP2 GTPγS μM (+HSA)
T2 construct: expressed in transfected cells
T2 sequence (Q9Y5Y4 1-395): T1 sequence (Q9Y5Y4 1-395)
Procedure: The ability of a compound to inhibit binding of GTP to DP2 is assessed via a membrane GTPγS assay. CHO cells stably expressing the recombinant human CRTH2 receptor are resuspended in 10 mM Hepes, 7.4 containing 1 mM DTT, lysed and centrifuged at 75,000×g to pellet the membranes. The membranes are resuspended in 10 mM Hepes, 7.4 containing 1 mM DTT and 10% glycerol. […] The reactions are terminated by rapid filtration through Whatman GF/B glass fibre filter plates. The filter plates are washed 3 times with 1 ml cold Assay Buffer and dried. Scintillant is then added to the plates and the radioactivity retained on the filters is determined on a Packard TopCount (Perkin Elmer). Specific binding is determined as total radioactive binding minus non-specific binding in the absence of the ligand (80 nM PGD2). IC50s were determined using Graphpad prism analysis of drug titration curves.

human DP1 receptor = molecular target: T3, human DP1 receptor (Homo sapiens, UniProt Q13258); test: DP1 radioligand binding assay ([3H]BWA868C, platelet membranes); conditions: [3H]BWA868C binding, human platelet membranes; read-out: hDP1
T3 construct: tissue Biological Specialty Corporation; host or cells: human platelet membranes
T3 sequence (Q13258 1-359): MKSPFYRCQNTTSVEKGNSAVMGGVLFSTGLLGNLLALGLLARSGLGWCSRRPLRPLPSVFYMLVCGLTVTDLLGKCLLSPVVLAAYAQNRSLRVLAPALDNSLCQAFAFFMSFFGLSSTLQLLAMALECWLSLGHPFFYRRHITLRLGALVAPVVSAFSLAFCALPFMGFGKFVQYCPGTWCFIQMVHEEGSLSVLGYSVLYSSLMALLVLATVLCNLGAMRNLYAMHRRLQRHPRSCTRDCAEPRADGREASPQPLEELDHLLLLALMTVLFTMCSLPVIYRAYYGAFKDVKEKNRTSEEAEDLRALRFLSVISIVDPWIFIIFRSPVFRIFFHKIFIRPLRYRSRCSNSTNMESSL
Procedure, shortened: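 Human platelet membranes (20 μg protein/well) incubated 60 min at room temperature with 2 nM [3H]BWA868C and compound in 50 mM Hepes, 10 mM MnCl2, 1 mM EDTA, pH 7.4, ± 0.2% human serum albumin. Bound radioactivity measured after filtration; nonspecific binding defined with 10 μM BWA868C; IC50 from titration curves.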

IC50 (human DP2 receptor) [µM] | IC50 [1] [µM] | IC50 (human DP1 receptor) [µM] | Compound
< 0.3 | < 0.3 | 1 to 30 | CCN(Cc1cc(C(F)(F)F)ccc1-c1cc(CC(=O)O)cc(C(F)(F)F)c1)C(=O)C1CC1 [Compound 1-136, {2′-[(Cyclopropanecarbonyl-ethyl-amino)-methyl]-5,4′-bis-trifluoromethyl-biphenyl-3-yl}-acetic acid]
< 0.3 | 0.3 to 1 | 1 to 30 | CCN(Cc1cc(C(F)(F)F)ccc1-c1cc(CC(=O)O)ccc1OC)C(=O)NC#N [Compound 1-99, [2′-(3-Cyano-1-ethyl-ureidomethyl)-6-methoxy-4′-trifluoromethyl-biphenyl-3-yl]-acetic acid]
< 0.3 | < 0.3 | 1 to 30 | CCN(Cc1cc(C(F)(F)F)ccc1-c1cc(CC(=O)O)ccc1OC)C(=O)Nc1ccccc1Br [Compound 1-47, {2′-[3-(2-Bromo-phenyl)-1-ethyl-ureidomethyl]-6-methoxy-4′-trifluoromethyl-biphenyl-3-yl}-acetic acid]
< 0.3 | < 0.3 | 1 to 30 | COc1ccc(CC(=O)O)cc1-c1ccc(C(F)(F)F)cc1CN(CC(C)(C)C)C(C)=O [Compound 1-3, (2′-{[Acetyl-(2,2-dimethyl-propyl)-amino]-methyl}-6-methoxy-4′-trifluoromethyl-biphenyl-3-yl)-acetic acid]
< 0.3 | 1 to 30 | 0.3 to 1 | CCN(Cc1cccc(OC)c1-c1cccc(CC(=O)O)c1)C(=O)OCc1ccccc1 [Compound 1-122, {2′-[(Benzyloxycarbonyl-ethyl-amino)-methyl]-6′-methoxy-biphenyl-3-yl}-acetic acid]
< 0.3 | < 0.3 | 1 to 30 | COC(=O)N(Cc1cc(C(F)(F)F)ccc1-c1cc(CC(=O)O)ccc1OC)C1Cc2ccccc2C1 [Compound 1-26, {2′-[(Indan-2-yl-methoxycarbonyl-amino)-methyl]-6-methoxy-4′-trifluoromethyl-biphenyl-3-yl}-acetic acid]
< 0.3 | < 0.3 | 1 to 30 | COC(=O)N(CCc1ccccc1)Cc1cc(C(F)(F)F)ccc1-c1cc(CC(=O)O)ccc1OC [Compound 1-25, {6-Methoxy-2′-[(methoxycarbonyl-phenethyl-amino)-methyl]-4′-trifluoromethyl-biphenyl-3-yl}-acetic acid]
< 0.3 | < 0.3 | 1 to 30 | CCN(Cc1cc(C(F)(F)F)ccc1-c1cc(CC(=O)O)ccc1OC)C(=O)C[S+]([O-])c1ccccc1 (stereo not drawn) [Compound 1-119, (2′-{[(2-Benzenesulfinyl-acetyl)-ethyl-amino]-methyl}-6-methoxy-4′-trifluoromethyl-biphenyl-3-yl)-acetic acid]
< 0.3 | < 0.3 | 1 to 30 | CCN(Cc1cc(C(F)(F)F)ccc1-c1cc(CC(=O)O)ccc1OC)C(=O)C1(c2ccc(Cl)cc2Cl)CC1 [Compound 1-131, [2′-({[1-(2,4-Dichloro-phenyl)-cyclopropanecarbonyl]-ethyl-amino}-methyl)-6-methoxy-4′-trifluoromethyl-biphenyl-3-yl]-acetic acid]
< 0.3 | < 0.3 | 1 to 30 | CCN(Cc1cc(C(F)(F)F)ccc1-c1cc(CC(=O)O)ccc1OC)/C(=N/C#N)NCC1CCCCC1 [Compound 1-112, [2′-(N′-Cyano-N″-cyclohexylmethyl-N-ethyl-guanidinomethyl)-6-methoxy-4′-trifluoromethyl-biphenyl-3-yl]-acetic acid]
< 0.3 | < 0.3 | 1 to 30 | COc1ccc(CC(=O)O)cc1-c1ccc(C(F)(F)F)cc1CN(Cc1ccccc1)C(C)=O [Compound 1-19, {2′-[(Acetyl-benzyl-amino)-methyl]-6-methoxy-4′-trifluoromethyl-biphenyl-3-yl}-acetic acid]
< 0.3 | < 0.3 | 1 to 30 | COc1ccc(CC(=O)O)cc1-c1ccc(C(F)(F)F)cc1CN(C(C)=O)[C@H]1CCc2ccccc21 [Compound 1-14, {2′-[((S)-Acetyl-indan-1-yl-amino)-methyl]-6-methoxy-4′-trifluoromethyl-biphenyl-3-yl}-acetic acid]
1 to 30 | 1 to 30 | 1 to 30 | COc1ccc(CC(=O)O)cc1-c1ccc(C(F)(F)F)cc1CN(CC(=O)O)C(C)=O [Compound 1-8, {2′-[(Acetyl-carboxymethyl-amino)-methyl]-6-methoxy-4′-trifluoromethyl-biphenyl-3-yl}-acetic acid]
< 0.3 | < 0.3 | 1 to 30 | COc1ccc(CC(=O)O)cc1-c1ccc(C(F)(F)F)cc1CN(CCc1ccccc1)C(C)=O [Compound 1-20, {2′-[(Acetyl-phenethyl-amino)-methyl]-6-methoxy-4′-trifluoromethyl-biphenyl-3-yl}-acetic acid]
< 0.3 | < 0.3 | 1 to 30 | CCN(Cc1cc(C(F)(F)F)ccc1-c1cc(C(C)C(=O)O)ccc1OC)C(C)=O (stereo not drawn) [Compound 1-21, 2-{2′-[(Acetyl-ethyl-amino)-methyl]-6-methoxy-4′-trifluoromethyl-biphenyl-3-yl}-propionic acid]
< 0.3 | < 0.3 | 1 to 30 | CCN(Cc1cc(C(F)(F)F)ccc1-c1cc(CC(=O)O)ccc1OC)C(=O)N1CCCC1 [Compound 1-97, (2′-{[Ethyl-(pyrrolidine-1-carbonyl)-amino]-methyl}-6-methoxy-4′-trifluoromethyl-biphenyl-3-yl)-acetic acid]
< 0.3 | 0.3 to 1 | 0.3 to 1 | CCN(Cc1cc(C(F)(F)F)ccc1-c1ccc(Cl)c(CC(=O)O)c1)C(=O)OCc1ccccc1 [Compound 1-125, {2′-[(Benzyloxycarbonyl-ethyl-amino)-methyl]-4-chloro-4′-trifluoromethyl-biphenyl-3-yl}-acetic acid]
< 0.3 | < 0.3 | 0.3 to 1 | CCN(Cc1cc(C(F)(F)F)ccc1-c1ccc(F)c(CC(=O)O)c1)C(=O)OCc1ccccc1 [Compound 1-127, {2′-[(Benzyloxycarbonyl-ethyl-amino)-methyl]-4-fluoro-4′-trifluoromethyl-biphenyl-3-yl}-acetic acid]
< 0.3 | < 0.3 | 1 to 30 | CCN(Cc1cc(C(F)(F)F)ccc1-c1cc(CC(=O)O)ccc1OC)/C(=N/C#N)NCc1ccc(OC)cc1 [Compound 1-114, {2′-[N′-Cyano-N-ethyl-N″-(4-methoxy-benzyl)-guanidinomethyl]-6-methoxy-4′-trifluoromethyl-biphenyl-3-yl}-acetic acid]
< 0.3 | < 0.3 | 0.3 to 1 | CCN(Cc1cc(C(F)(F)F)ccc1-c1cc(F)cc(CC(=O)O)c1)C(=O)OCc1ccccc1 [Compound 1-126, {2′-[(Benzyloxycarbonyl-ethyl-amino)-methyl]-5-fluoro-4′-trifluoromethyl-biphenyl-3-yl}-acetic acid]
< 0.3 | < 0.3 | 1 to 30 | CCN(Cc1cc(C(F)(F)F)ccc1-c1ccc(OC)c(CC(=O)O)c1)C(=O)OCc1ccccc1 [Compound 1-107, {2′-[(Benzyloxycarbonyl-ethyl-amino)-methyl]-4-methoxy-4′-trifluoromethyl-biphenyl-3-yl}-acetic acid]
< 0.3 | < 0.3 | 1 to 30 | CCOc1ccc(-c2ccc(-c3cc(CC(=O)O)ccc3OC)c(CN(CC)C(=O)C3CC3)c2)cn1 [Compound 1-227, [2′-[(Cyclopropanecarbonyl-ethyl-amino)-methyl]-4′-(6-ethoxy-pyridin-3-yl)-6-methoxy-biphenyl-3-yl]-acetic acid]
